Measured values from paper PMC10819888, “Benzimidazole-Based Derivatives as Apoptotic Antiproliferative Agents: Design, Synthesis, Docking, and Mechanistic Studies” (Molecules, 2024).

Biological target: BRAF^V600E
Assay: biochemical

BRAF^V600E, sequence (P28028 whole entry V585E): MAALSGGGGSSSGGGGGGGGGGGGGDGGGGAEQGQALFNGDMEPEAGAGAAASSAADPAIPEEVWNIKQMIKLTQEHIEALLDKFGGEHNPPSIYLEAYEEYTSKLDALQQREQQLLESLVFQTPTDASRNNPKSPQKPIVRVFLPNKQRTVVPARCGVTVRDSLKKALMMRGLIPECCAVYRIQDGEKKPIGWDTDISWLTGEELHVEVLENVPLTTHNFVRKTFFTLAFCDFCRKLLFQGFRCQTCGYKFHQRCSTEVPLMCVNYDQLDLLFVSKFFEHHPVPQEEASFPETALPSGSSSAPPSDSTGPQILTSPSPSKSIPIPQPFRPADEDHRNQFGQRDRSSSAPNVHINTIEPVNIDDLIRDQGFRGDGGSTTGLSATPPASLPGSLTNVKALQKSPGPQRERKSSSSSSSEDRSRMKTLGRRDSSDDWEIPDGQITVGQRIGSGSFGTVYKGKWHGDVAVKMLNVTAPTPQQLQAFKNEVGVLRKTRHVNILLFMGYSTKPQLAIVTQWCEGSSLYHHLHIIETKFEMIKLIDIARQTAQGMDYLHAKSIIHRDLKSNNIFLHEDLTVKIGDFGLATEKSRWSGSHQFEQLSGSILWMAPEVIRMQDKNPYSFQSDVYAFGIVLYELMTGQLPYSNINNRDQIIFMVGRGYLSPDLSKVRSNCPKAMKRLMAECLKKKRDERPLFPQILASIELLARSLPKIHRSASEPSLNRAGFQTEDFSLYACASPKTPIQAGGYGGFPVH

IC50: 820 ± 60 nM
SMILES: COc1cc(/C=N/NC(=O)c2ccc3[nH]c(-c4ccc(Cl)cc4)nc3c2)cc(OC)c1OC [Compound 4h, N′-(3,4,5-Trimethoxybenzylidene)-2-(4-chlorophenyl)-1H-benzimidazole-5 carbohydrazide]
